# Paper PMC4303209, “A novel phosphatidylinositol 3-kinase (PI3K) inhibitor directs a potent FOXO-dependent, p53-independent cell cycle arrest phenotype characterized by the differential induction of a subset of FOXO-regulated genes” (Breast Cancer Research : BCR, 2014)
# System: MCF-7 breast cancer cells
# Experiment: Microarray gene expression analysis (Agilent whole human genome 4 x 44K; compound vs DMSO, LIMMA log2 fold change)
# Format: cell-based
# Settings: cell cycle genes
compound,measurement,setting,value
Oc1cccc(-c2nc(N3CCOCC3)c3oc4ncccc4c3n2)c1 [PI-103],TUBB3 log2FC,Gene 10381,-0.59
same,ANAPC10 log2FC,Gene 10393,0.20
same,NDRG1 log2FC,Gene 10397,1.49
same,GNB2L1 log2FC,Gene 10399,-0.0332
same,PRMT5 log2FC,Gene 10419,-0.13
same,MAD2L2 log2FC,Gene 10459,0.16
same,TACC3 log2FC,Gene 10460,-0.29
same,CREB3 log2FC,Gene 10488,-0.0661
same,MYBBP1A log2FC,Gene 10514,-0.30
same,CIB1 log2FC,Gene 10519,-0.08
same,SSSCA1 log2FC,Gene 10534,-0.27
same,DCTN2 log2FC,Gene 10540,0.11
same,SMC2 log2FC,Gene 10592,0.63
same,ERN2 log2FC,Gene 10595,-0.68
same,USP16 log2FC,Gene 10600,0.68
same,HEXIM1 log2FC,Gene 10614,-0.43
same,SPAG5 log2FC,Gene 10615,0.36
same,STAMBP log2FC,Gene 10617,0.27
same,TXNIP log2FC,Gene 10628,2.21
same,PDPN log2FC,Gene 10630,-0.0347
same,RGS14 log2FC,Gene 10636,0.71
same,CTCF log2FC,Gene 10664,-0.22
same,CGRRF1 log2FC,Gene 10668,0.54
same,CGREF1 log2FC,Gene 10669,0.00665
same,USP39 log2FC,Gene 10713,-0.0422
same,NUDC log2FC,Gene 10726,-0.38
same,PLK4 log2FC,Gene 10733,0.52
same,STAG3 log2FC,Gene 10734,0.43
same,STAG2 log2FC,Gene 10735,1.19
same,NES log2FC,Gene 10763,-0.28
same,PLK2 log2FC,Gene 10769,-0.93
same,NEK6 log2FC,Gene 10783,-0.68
same,SDCCAG8 log2FC,Gene 10806,0.62
same,TUBGCP2 log2FC,Gene 10844,0.037
same,LILRB1 log2FC,Gene 10859,-0.21
same,USP19 log2FC,Gene 10869,0.38
same,BLCAP log2FC,Gene 10904,-0.47
same,TXNL4A log2FC,Gene 10907,-0.46
same,SUGT1 log2FC,Gene 10910,0.24
same,GADD45G log2FC,Gene 10912,-0.19
same,EHMT2 log2FC,Gene 10919,0.25
same,BTG3 log2FC,Gene 10950,0.00788
same,MAPRE2 log2FC,Gene 10982,-0.34
same,KIF2C log2FC,Gene 11004,0.44
same,TLK2 log2FC,Gene 11011,0.62
same,RAB35 log2FC,Gene 11021,-0.44
same,TDRKH log2FC,Gene 11022,0.0086
same,PIM2 log2FC,Gene 11040,-0.54
same,UBE2C log2FC,Gene 11065,-0.18
same,TRIOBP log2FC,Gene 11078,0.53
same,NUPL2 log2FC,Gene 11097,-0.024
same,KATNA1 log2FC,Gene 11104,0.67
same,PRDM4 log2FC,Gene 11108,0.26
same,CIT log2FC,Gene 11113,0.53
same,ZWINT log2FC,Gene 11130,-0.23
same,CDC37 log2FC,Gene 11140,-0.17
same,LZTS1 log2FC,Gene 11178,-0.98
same,WDR6 log2FC,Gene 11180,-0.36
same,RASSF1 log2FC,Gene 11186,0.72
same,CEP250 log2FC,Gene 11190,-0.14
same,PMF1 log2FC,Gene 11243,-0.18
same,DCTN3 log2FC,Gene 11258,0.31
same,TUSC2 log2FC,Gene 11334,-0.50
same,OIP5 log2FC,Gene 11339,0.0365
same,MAPRE1 log2FC,Gene 22919,-0.57
same,MAPRE3 log2FC,Gene 22924,0.0211
same,TRIM32 log2FC,Gene 22954,-0.32
same,TPX2 log2FC,Gene 22974,-0.00173
same,AZI1 log2FC,Gene 22994,0.93
same,CEP152 log2FC,Gene 22995,0.55
same,USP33 log2FC,Gene 23032,0.88
same,WAPAL log2FC,Gene 23063,0.61
same,TRIM35 log2FC,Gene 23087,0.20
same,CLASP2 log2FC,Gene 23122,0.55
same,POGZ log2FC,Gene 23126,0.58
same,PHF8 log2FC,Gene 23133,-0.18
same,SMC5 log2FC,Gene 23137,-0.36
same,FBXL7 log2FC,Gene 23194,0.0429
same,PSME4 log2FC,Gene 23198,-0.07
same,RRS1 log2FC,Gene 23212,-0.91
same,NUP210 log2FC,Gene 23225,-0.44
same,PLCB1 log2FC,Gene 23236,1.31
same,BOP1 log2FC,Gene 23246,-0.18
same,NUP160 log2FC,Gene 23279,-0.78
same,FBXW11 log2FC,Gene 23291,-0.28
same,UBR2 log2FC,Gene 23304,0.76
same,USP22 log2FC,Gene 23326,0.07
same,CLASP1 log2FC,Gene 23332,-0.36
same,PPP1R13B log2FC,Gene 23368,0.0642
same,DICER1 log2FC,Gene 23405,-0.87
same,SIRT1 log2FC,Gene 23411,1.17
same,ITGB3BP log2FC,Gene 23421,0.69
same,PES1 log2FC,Gene 23481,-0.38
same,ZFYVE26 log2FC,Gene 23503,0.40
same,SCRIB log2FC,Gene 23513,0.03
same,CCNDBP1 log2FC,Gene 23582,0.71
same,CD2AP log2FC,Gene 23607,0.81
same,NUP62 log2FC,Gene 23636,-0.63
same,RABGAP1 log2FC,Gene 23637,0.55
same,PPP1R15A log2FC,Gene 23645,0.51
same,POLA2 log2FC,Gene 23649,-0.87
same,ZNF318 log2FC,Gene 24149,0.53
same,RAD54B log2FC,Gene 25788,0.42
same,NIPBL log2FC,Gene 25836,0.88
same,INTS7 log2FC,Gene 25896,-0.23
same,AHCTF1 log2FC,Gene 25909,0.40
same,SIN3A log2FC,Gene 25942,0.89
same,SH2B1 log2FC,Gene 25970,-0.49
same,EGFL6 log2FC,Gene 25975,0.03
same,SENP6 log2FC,Gene 26054,0.54
same,FBXO6 log2FC,Gene 26270,0.37
same,FBXO5 log2FC,Gene 26271,0.49
same,NUPR1 log2FC,Gene 26471,0.07
same,AATF log2FC,Gene 26574,-0.41
same,CKAP2 log2FC,Gene 26586,0.63
same,HBP1 log2FC,Gene 26959,2.74
same,MLH3 log2FC,Gene 27030,0.23
same,MTBP log2FC,Gene 27085,0.79
same,TJP3 log2FC,Gene 27134,0.31
same,VPS4A log2FC,Gene 27183,-0.29
same,PDCD4 log2FC,Gene 27250,1.70
same,APEX2 log2FC,Gene 27301,-0.66
same,UBE2S log2FC,Gene 27338,-0.66
same,EML4 log2FC,Gene 27436,-0.50
same,PPP2R3B log2FC,Gene 28227,0.28
same,MCTS1 log2FC,Gene 28985,-0.21
same,HIPK2 log2FC,Gene 28996,-0.14
same,BRD7 log2FC,Gene 29117,0.53
same,RACGAP1 log2FC,Gene 29127,0.55
same,UHRF1 log2FC,Gene 29128,-0.33
same,PSMC3IP log2FC,Gene 29893,-0.14
same,GPSM2 log2FC,Gene 29899,0.32
same,SAC3D1 log2FC,Gene 29901,0.09
same,RPA4 log2FC,Gene 29935,0.55
same,ANAPC4 log2FC,Gene 29945,0.43
same,SERTAD1 log2FC,Gene 29950,-0.75
same,CUZD1 log2FC,Gene 50624,0.31
same,PARD6A log2FC,Gene 50855,0.11
same,GMNN log2FC,Gene 51053,-0.12
same,RPS27L log2FC,Gene 51065,0.28
same,MLXIPL log2FC,Gene 51085,0.34
same,SBDS log2FC,Gene 51119,0.46
same,DYNC1LI1 log2FC,Gene 51143,0.52
same,ING4 log2FC,Gene 51147,1.59
same,TUBE1 log2FC,Gene 51175,0.0372
same,LEF1 log2FC,Gene 51176,-0.89
same,HERC5 log2FC,Gene 51191,0.75
same,NUSAP1 log2FC,Gene 51203,0.74
same,DUSP13 log2FC,Gene 51207,0.0185
same,WAC log2FC,Gene 51322,0.91
same,DACT1 log2FC,Gene 51339,0.04
same,FZR1 log2FC,Gene 51343,-0.32
same,TAOK3 log2FC,Gene 51347,1.14
same,PRKAG2 log2FC,Gene 51422,-0.54
same,SNX9 log2FC,Gene 51429,0.42
same,ANAPC7 log2FC,Gene 51434,-0.32
same,LCMT1 log2FC,Gene 51451,0.00313
